In assay [1] the test system is human limbal stem cells (LSCs). The assay can be described thus: Human limbal stem cell population expansion: percentage of p63alpha-positive cells. It counts as cell-based. The following applies: 10 micromolar, XVIVO15 medium. As for the experimental part: (§1) Cells were cultured at 37° C. in 5% CO2.
(§2) For each compound, two sets of cultures were generated. A first set of cultures was fixed in 4% PFA for 20 minutes at room temperature after cells isolated from the cornea had attached to the cell culture dish (typically 24 h after cell plating). A second set of cultures was fixed in 4% PFA for 20 minutes at room temperature after being cultured for two passages. Cells were passaged when they reached 90-100% confluence.
In order to observe that the expanded cell population expressed p63alpha, this was measured by immunohistochemistry as follows. The fixed cell cultures were permeabilized and blocked in a blocking solution of 0.3% Triton X-100 (Sigma-Aldrich) and 3% donkey serum in PBS for 30 minutes. Cells were then labeled with primary antibody in the blocking solution for 12 hours at 4° C. Primary antibody used was p63alpha from Cell Signalling. Samples were washed in PBS three times and donkey-raised secondary antibody Alexa Fluor 488 (Molecular Probes) at 1:500 dilution were applied for 30 minutes at room temperature. Cell nuclei were then labeled in a solution of 0.5 micromolar of Sytox Orange (ThermoFisher) in PBS for 5 minutes at room temperature.
To evaluate the percentage of p63alpha-positive cells, the number of cells labeled by the anti-p63alpha antibody was counted and the total number of cells was determined by counting the number of nuclei stained by Sytox Orange. The proportion of p63alpha-positive cells was then determined by calculating the percentage of Sytox-orange-positive nuclei that also expressed p63alpha.

The test system of assay [2] is human corneal endothelial cells (CECs). The assay can be described thus: Human corneal endothelial cell population expansion: endothelial cell density in vitro. The format is cell-based. The following applies: 10 micromolar compound, X-VIVO15 medium, 10 days. As for the experimental part:
as §1
(§3) For each compound, two sets of cultures were generated. A first set of cultures was fixed in 4% PFA for 20 minutes at room temperature after cells isolated from the cornea had attached to the cell culture dish (typically 24 h after cell plating). A second set of cultures was fixed in 4% PFA for 20 minutes at room temperature 10 days after the first one.
(§4) To measure cell density in all fixed cultures, the number of nuclei stained with Sytox Orange (ThermoFisher) were counted per surface area as follows: fixed cell cultures fixed were permeabilized in a solution of 0.3% Triton X-100 (Sigma-Aldrich). Cells were then labeled in a solution of 0.5 micromolar of Sytox Orange in PBS for 5 minutes at room temperature. Nuclei were counted under a Zeiss epifluorescence microscope. The expansion factor was then determined by calculating the ratio of the expanded population of cells to population of seeded cells.

Assay [3] deals with human limbal stem cells (LSCs). The assay can be described thus: Human limbal stem cell population expansion: expansion factor. The following applies: 10 micromolar, XVIVO15 medium, two passages, ratio of expanded to seeded cells. It counts as cell-based. As for the experimental part:
as §1, §2
To evaluate cell expansion ratios, nuclei were counted using a Zeiss LSM 880 confocal microscope. The expansion factor was then determined by calculating the ratio of the expanded population of cells to population of seeded cells.

Assay [4] deals with Phospho-YAP (SER127) in HaCaT cells. Put plainly: pYAP HTRF Assay (HaCaT Cells). The format is cell-based, human. The following applies: Homo sapiens, 2 hours. In outline:
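HaCaT cells at 5500 cells/well were cultured 48 hours at 37° C, then treated with compound for 2 hours. Phospho-YAP (Ser127) was detected by HTRF after an overnight (20 hrs) room-temperature incubation, read as the 665 nm/620 nm ratio.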

Assay [5] has as its target LATS1 (Homo sapiens (Human), UniProt O95835). Put plainly: LATS1 biochemical assay (Table 1A, Compound Examples 1-290; method in the earlier part).
In assay [6] the test system is YAP nuclear translocation in HaCaT cells. Put plainly: YAP Translocation Assay (HaCaT Cells). The format is cell-based, human. The following applies: Homo sapiens, 24 hours. In outline:
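HaCaT cells (20,000/well) in DMEM + 10% FBS were plated overnight at 37° C, then exposed to compound for 24 h at 37° C. Cells were fixed with PFA, permeabilized with 0.1% Triton/1.5% BSA and imaged by high-content imaging.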

Assay [7] deals with human corneal endothelial cells (CECs). The assay can be described thus: Human corneal endothelial cell population expansion: fold cell expansion. The format is cell-based. The following applies: 10 micromolar compound, X-VIVO15 medium, 10 days, ratio of expanded to seeded cells. The protocol:
as §1, §3, §4

Assay [8] concerns the target Human LATS2 kinase domain protein (Homo sapiens (Human), UniProt Q9NRM7). The assay can be described thus: LATS2 Biochemical Caliper Assay (Compound Examples 1-290). The following applies: 400 micromolar ATP. The protocol: Human LATS2 kinase domain protein was purchased from Carnabio (catalogue number 01-124), which harbors the catalytic domain of amino acids 553-1088, and was co-purified with human His-tagged MOBKL1A (NP_775-739). 5 microlitre of enzyme buffer, 100 nL of compounds and 5 microlitre of localising aid buffer were added into 384-well plates. […] The plates were incubated at 25° C. for 3 hours. 40 microlitre of stop buffer with 25 mM EDTA (NanoSyn) was added to each well to terminate the reaction. Localising aids and products were separated electrophoretically using the microfluidic-based Caliper Labchip 3000 Drug Discovery System (Caliper Life Sciences). Plates were read using blue laser excitation and green fluorescence detection and quantified by fluorescence intensity.

Assay [9] deals with Phospho-YAP (Ser127) in JHH-5 cells. The assay can be described thus: pYAP HTRF Assay (JHH-5 cells). The following applies: 2 hours. It counts as cell-based. In outline: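 JHH-5 cells (24000/well) cultured 24 h at 37 °C in William's E with 10% FBS, then exposed to compounds for 2 h at 37 °C. After lysis, pYAP d2/cryptate antibodies incubated 18 h at room temperature; HTRF ratio 665/620 nm ×10000.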
Background: TR-FRET usually uses a lanthanide donor and a delayed reading to cut background.

Sequence of LATS1 (O95835 whole entry, looked up): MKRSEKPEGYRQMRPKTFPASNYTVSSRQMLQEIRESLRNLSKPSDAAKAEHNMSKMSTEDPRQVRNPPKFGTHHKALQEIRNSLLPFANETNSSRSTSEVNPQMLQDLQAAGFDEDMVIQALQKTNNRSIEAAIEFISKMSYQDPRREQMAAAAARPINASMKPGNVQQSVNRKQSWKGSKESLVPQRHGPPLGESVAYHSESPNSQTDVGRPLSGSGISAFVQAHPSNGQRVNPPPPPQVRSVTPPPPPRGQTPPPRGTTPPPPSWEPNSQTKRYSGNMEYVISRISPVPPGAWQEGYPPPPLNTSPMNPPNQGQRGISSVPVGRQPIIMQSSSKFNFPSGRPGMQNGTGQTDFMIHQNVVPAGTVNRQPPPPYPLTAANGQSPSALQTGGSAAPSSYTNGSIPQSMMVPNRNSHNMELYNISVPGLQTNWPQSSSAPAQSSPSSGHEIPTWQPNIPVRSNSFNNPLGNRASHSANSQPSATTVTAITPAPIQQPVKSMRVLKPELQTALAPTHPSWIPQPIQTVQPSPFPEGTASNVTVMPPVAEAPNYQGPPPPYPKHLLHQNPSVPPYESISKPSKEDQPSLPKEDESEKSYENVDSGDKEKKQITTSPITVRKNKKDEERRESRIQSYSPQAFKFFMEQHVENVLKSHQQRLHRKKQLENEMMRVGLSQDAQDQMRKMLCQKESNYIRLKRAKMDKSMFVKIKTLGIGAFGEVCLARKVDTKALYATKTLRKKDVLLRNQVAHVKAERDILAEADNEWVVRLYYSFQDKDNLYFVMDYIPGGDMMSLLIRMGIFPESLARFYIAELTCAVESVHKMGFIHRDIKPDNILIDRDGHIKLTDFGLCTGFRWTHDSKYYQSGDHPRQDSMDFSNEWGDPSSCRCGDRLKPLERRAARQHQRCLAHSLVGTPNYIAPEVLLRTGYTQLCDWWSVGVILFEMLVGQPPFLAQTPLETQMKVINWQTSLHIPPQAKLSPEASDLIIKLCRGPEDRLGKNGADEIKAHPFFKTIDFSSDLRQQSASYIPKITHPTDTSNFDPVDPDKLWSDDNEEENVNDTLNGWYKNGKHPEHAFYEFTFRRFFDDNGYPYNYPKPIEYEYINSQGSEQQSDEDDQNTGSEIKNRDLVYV
Sequence of LATS1 (Q7L9L4 whole entry partner, looked up): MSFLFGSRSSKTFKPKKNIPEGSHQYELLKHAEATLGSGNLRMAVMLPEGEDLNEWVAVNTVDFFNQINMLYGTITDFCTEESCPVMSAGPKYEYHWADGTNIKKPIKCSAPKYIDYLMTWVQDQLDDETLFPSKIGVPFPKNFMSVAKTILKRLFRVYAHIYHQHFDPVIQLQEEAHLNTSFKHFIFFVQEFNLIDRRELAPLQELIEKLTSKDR
Sequence of Human LATS2 kinase domain protein (Q9NRM7 553-1088): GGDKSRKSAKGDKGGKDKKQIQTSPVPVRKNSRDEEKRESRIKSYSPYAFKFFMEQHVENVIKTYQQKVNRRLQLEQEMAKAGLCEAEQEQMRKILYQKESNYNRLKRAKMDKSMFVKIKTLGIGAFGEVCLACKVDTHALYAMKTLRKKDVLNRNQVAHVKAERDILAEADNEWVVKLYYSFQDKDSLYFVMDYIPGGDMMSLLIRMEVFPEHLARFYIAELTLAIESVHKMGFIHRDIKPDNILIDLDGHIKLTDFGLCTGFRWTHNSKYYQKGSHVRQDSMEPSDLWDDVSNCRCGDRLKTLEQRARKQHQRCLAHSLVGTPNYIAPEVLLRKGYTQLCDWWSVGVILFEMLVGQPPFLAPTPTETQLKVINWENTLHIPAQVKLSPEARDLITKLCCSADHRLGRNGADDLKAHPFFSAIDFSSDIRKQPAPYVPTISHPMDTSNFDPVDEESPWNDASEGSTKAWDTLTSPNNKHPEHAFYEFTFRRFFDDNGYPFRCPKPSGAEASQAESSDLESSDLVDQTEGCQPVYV
Sequence of Human LATS2 kinase domain protein (Q7L9L4 whole entry partner, the tested form may be a part): as the sequence (Q7L9L4 whole entry partner, looked up) above

For `O[C@H]1CCC[C@@H]1Nc1nc(-c2ccncc2)nc2cnccc12` [Example 33, (1S,2S)-2-{[2-(pyridin-4-yl)pyrido[3,4-d]pyrimidin-4-yl]amino}cyclopentan-1-ol], the “Percentage of p63a-positive cells” value in assay [1] came to 6%. Moreover, the “Endothelial Cell density in vitro” value in [2] is 25 cells/mm^2. Also, the Expansion factor in [3] is recorded as 39. Moreover, the values for the IC50 in assay [4] and in assay [5] were more than 20000 nM and 71 nM, respectively. The EC50 in assay [6] was more than 20000 nM. For the same compound, the “Expansion factor (Fold Cell expansion)” value in [7] came out at 12.
On to `CC1(Nc2cc(-c3ccncc3)cc3cnccc23)CC1` [Example 289, N-(1-methylcyclopropyl)-7-(pyridin-4-yl)isoquinolin-5-amine], for which the “Percentage of p63a-positive cells” value in assay [1] is 80%. Moreover, the “Endothelial Cell density in vitro” value in assay [2] was 1421 cells/mm^2. Also, the Expansion factor in [3] is recorded as 681. The IC50 in assay [4] came out at 34100 nM; in assay [5] it was 4 nM. Moreover, in [6], the EC50 amounted to 6500 nM. For the same compound, in assay [7], the “Expansion factor (Fold Cell expansion)” value is given as 84.
For `FC(F)(F)C1(Nc2nc(-c3ccncc3)cc3cnccc23)CC1` [Example 288, 3-(pyridin-4-yl)-N-(1-(trifluoromethyl)cyclopropyl)-2,6-naphthyridin-1-amine], the “Percentage of p63a-positive cells” value in [1] amounted to 95%. Besides, the “Endothelial Cell density in vitro” value in [2] was 2779 cells/mm^2. Further, in assay [3], the Expansion factor is on record as 1241. Also, the IC50 in assay [4] was 18300 nM; in assay [5], 4 nM; in assay [8] it was 34 nM. The same compound gave an EC50 in assay [6] of 7420 nM. Besides, in assay [7], the “Expansion factor (Fold Cell expansion)” value came out at 302.
In the case of `CC(C)Nc1nc(-c2ccncc2)nc2cnccc12` [Example 6, N-(propan-2-yl)-2-(pyridin-4-yl)pyrido[3,4-d]pyrimidin-4-amine], the IC50 in assay [9] is 2600 nM; in assay [4], 1240 nM; in assay [5], 1 nM; in [8] it was 8 nM. Besides, the “Percentage of p63a-positive cells” value in [1] is recorded as 93%. In assay [2], the “Endothelial Cell density in vitro” value is recorded as 3378 cells/mm^2. Also, in assay [3], the Expansion factor amounted to 1275. Besides, a half-maximal effect in [6] (EC50) was put at 1700 nM. For the same compound, the “Expansion factor (Fold Cell expansion)” value in assay [7] came to 391.
`CCCNc1nc(-c2c[nH]nc2C(F)(F)F)nc2cnccc12` [Example 287, N-propyl-2-(3-(trifluoromethyl)-1H-pyrazol-4-yl)pyrido[3,4-d]pyrimidin-4-amine]: the IC50 in assay [9] is 9000 nM; in [4], 2990 nM; in [5], 2 nM; in assay [8], 15 nM. In addition, the “Percentage of p63a-positive cells” value in [1] was determined as 86%. Further, the “Endothelial Cell density in vitro” value in [2] amounted to 1893 cells/mm^2. Besides, in assay [3], the Expansion factor was 991. In [6], this compound registered an EC50 of 3880 nM. Also, the “Expansion factor (Fold Cell expansion)” value in assay [7] is listed as 237.
For `CC(C)(CO)Nc1nc(-c2ccncc2)nc2cnccc12` [Example 66, 2-methyl-2-{[2-(pyridin-4-yl)pyrido[3,4-d]pyrimidin-4-yl]amino}propan-1-ol], the IC50 in assay [9] was 6200 nM; in [4], 534 nM; in assay [5], 2 nM; in assay [8] it was 11 nM. Moreover, in [1], the “Percentage of p63a-positive cells” value turned out to be 89%. In addition, in [2], the “Endothelial Cell density in vitro” value is reported as 2503 cells/mm^2. Moreover, the Expansion factor in [3] stood at 1160. Besides, in [6], the EC50 stood at 1010 nM. Besides, in assay [7], the “Expansion factor (Fold Cell expansion)” value is on record as 280.
As for `FC(F)(F)C1(Nc2nc(-c3ccncc3)nc3cnccc23)CCC1` [Example 62, 2-(pyridin-4-yl)-N-[1-(trifluoromethyl)cyclobutyl]pyrido[3,4-d]pyrimidin-4-amine], the IC50 worked out at 600 nM in [9], 40 nM in assay [4], 1 nM in [5] and 2 nM in [8]. For the same compound, the “Percentage of p63a-positive cells” value in assay [1] was 95%. Besides, the “Endothelial Cell density in vitro” value in assay [2] was 3301 cells/mm^2. The Expansion factor in assay [3] came out at 1712. The compound further came in with an EC50 in assay [6] of 538 nM. In addition, in assay [7], the “Expansion factor (Fold Cell expansion)” value came out at 402.
Consider `CC(C)(Nc1nc(-c2ccncc2Cl)nc2cnccc12)C(F)(F)F` [Example 139, 2-(3-chloropyridin-4-yl)-N-(1,1,1-trifluoro-2-methylpropan-2-yl)pyrido[3,4-d]pyrimidin-4-amine], for which the IC50 in assay [9] is 1700 nM; in assay [4], 380 nM; in assay [5] it was 3 nM; in assay [8], 20 nM. For the same compound, in assay [1], the “Percentage of p63a-positive cells” value is 87%. Moreover, the “Endothelial Cell density in vitro” value in assay [2] was 1179 cells/mm^2. Further, the Expansion factor in [3] is 961. Besides, in assay [6], a half-maximal effect (EC50) was put at 2660 nM. The “Expansion factor (Fold Cell expansion)” value in assay [7] is given as 107.
With `FC(F)(F)C1CN(c2nc(-c3ccncc3)nc3cnccc23)CCN1` (stereo not shown) [Example 290, 2-(pyridin-4-yl)-4-(3-(trifluoromethyl)piperazin-1-yl)pyrido[3,4-d]pyrimidine], the IC50 in [9] stood at 3000 nM; in assay [5], 4 nM; in [8], 8 nM. Also, the “Percentage of p63a-positive cells” value in assay [1] worked out at 90%. Besides, the “Endothelial Cell density in vitro” value in [2] was determined as 2071 cells/mm^2. In addition, the Expansion factor in assay [3] worked out at 1051. For the same compound, in [6], a half-maximal effect (EC50) was put at 1390 nM. Besides, the “Expansion factor (Fold Cell expansion)” value in assay [7] came out at 221.
Consider `CC1CCCC1Nc1nc(-c2ccncc2)nc2cnccc12` (stereo not shown) [Example 17, N-(2-methylcyclopentyl)-2-(pyridin-4-yl)pyrido[3,4-d]pyrimidin-4-amine], for which the “Percentage of p63a-positive cells” value in assay [1] came out at 86%. The “Endothelial Cell density in vitro” value in assay [2] came to 1628 cells/mm^2. For the same compound, the Expansion factor in [3] amounted to 976. For the same compound, the IC50 was 606 nM in assay [4] and 5 nM in [5]. This compound returned an EC50 in assay [6] of 2630 nM. For the same compound, the “Expansion factor (Fold Cell expansion)” value in [7] is reported as 187.

For orientation: IC50 means the midpoint of a concentration-inhibition curve. High values mean a need for much substance, low ones inhibition by little substance. In general, EC50 refers to the concentration that produces a half-maximal response. A low value points to an effect from little substance.

The record behind these values is patent US11458138B2 (Novartis AG, priority 2017, dated 2022).
